# Measurements from the supplement of paper PMC10307832.
# Assays:
# Assay in all cases: relative viability (nuclei count vs DMSO), 5 days (fraction); higher = more cells survive
# R406 + Dasatinib = compound: COc1cc(Nc2ncc(F)c(Nc3ccc4c(n3)NC(=O)C(C)(C)O4)n2)cc(OC)c1OC [R406] + Cc1nc(Nc2ncc(C(=O)Nc3c(C)cccc3Cl)s2)cc(N2CCN(CCO)CC2)n1 [Dasatinib] (partner 0.075 µM)
# Summary of the method: (§1)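 Lung cancer cell lines in 1536-well plates were dosed by pin tool the day after seeding, either with one drug alone or with a fixed anchor-drug dose plus five library-drug doses (not always all listed) in √10 steps. After 5 days, cells were fixed and their nuclei stained in one step (final 0.05% Triton X-100, 1% formaldehyde, 1 ug/ml Hoechst), then counted on 4× images. Relative viability is the nuclei count in treated wells divided by that in vehicle wells. Values are medians of duplicate plates.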
# R406 + Decitabine = compound: COc1cc(Nc2ncc(F)c(Nc3ccc4c(n3)NC(=O)C(C)(C)O4)n2)cc(OC)c1OC [R406] + Nc1ncn([C@H]2C[C@H](O)[C@@H](CO)O2)c(=O)n1 [Decitabine] (partner 2 µM)
# Summary of the method: as §1
# Daporinad + Alpelisib = compound: O=C(/C=C/c1cccnc1)NCCCCC1CCN(C(=O)c2ccccc2)CC1 [Daporinad] + Cc1nc(NC(=O)N2CCC[C@H]2C(N)=O)sc1-c1ccnc(C(C)(C)C(F)(F)F)c1 [Alpelisib] (partner 2 µM)
# Summary of the method: as §1
# R406 + Palbociclib = compound: COc1cc(Nc2ncc(F)c(Nc3ccc4c(n3)NC(=O)C(C)(C)O4)n2)cc(OC)c1OC [R406] + CC(=O)c1c(C)c2cnc(Nc3ccc(N4CCNCC4)cn3)nc2n(C2CCCC2)c1=O [Palbociclib] (partner 0.5 µM)
# Summary of the method: as §1
cell line,measurement,setting,value
UMC-11,relative viability,R406 + Dasatinib; first compound 0.08 µM,0.466
same,relative viability,R406 + Dasatinib; first compound 0.253 µM,0.572
same,relative viability,R406 + Dasatinib; first compound 0.8 µM,0.519
same,relative viability,R406 + Dasatinib; first compound 2.53 µM,0.459
same,relative viability,R406 + Dasatinib; first compound 8 µM,0.342
same,relative viability,R406 + Decitabine; first compound 0.08 µM,0.618
same,relative viability,R406 + Decitabine; first compound 0.253 µM,0.703
same,relative viability,R406 + Decitabine; first compound 0.8 µM,0.75
same,relative viability,R406 + Decitabine; first compound 2.53 µM,1.34
same,relative viability,R406 + Decitabine; first compound 8 µM,0.312
same,relative viability,Daporinad + Alpelisib; first compound 0.0005 µM,0.915
same,relative viability,Daporinad + Alpelisib; first compound 0.001581 µM,0.979
same,relative viability,Daporinad + Alpelisib; first compound 0.005 µM,1.07
same,relative viability,Daporinad + Alpelisib; first compound 0.01581 µM,1.1
same,relative viability,R406 + Palbociclib; first compound 0.08 µM,0.314
same,relative viability,R406 + Palbociclib; first compound 0.253 µM,0.339
same,relative viability,R406 + Palbociclib; first compound 0.8 µM,0.35
same,relative viability,R406 + Palbociclib; first compound 2.53 µM,0.312
same,relative viability,R406 + Palbociclib; first compound 8 µM,0.239
